In patent US20020103107A1, “Screening assay for anti-thrombotic/anti-platelet activity” (priority 2000, published 2002):

Assays:
human platelets = test: Platelet aggregation of washed platelets (aggregometer), α-thrombin and other agonists
Description: The requirement of GP Ib for polymerizing fibrin was defined in a series of studies where results were compared with thrombin plus fibrinogen added to platelets versus platelets added to polymerizing fibrin. Washed platelets (50 μl) as a 10× concentrate were added to 0.05 to 0.1 U/ml α-thrombin plus fibrinogen pre-incubated for 2 minutes (polymerizing fibrin) in 430 μl buffer.
Blood was drawn by venopuncture into plastic tubes that contained 1/10 volume 3.8% citrate and platelet-rich plasma (PRP) was prepared in accordance with known techniques (Soslau, G. and J. Giles. 1982. Thrombos. Res. 26:443-455). Blood samples were obtained from healthy donors who were medication free. Washed platelets were prepared from the PRP by known methods (Basheer, A. R. et al. 1995. Biochim. Biophys. Acta 1250:97-109). Briefly, PRP was diluted with 3 volumes of 100 nM citrate buffer (pH 6.0) plus 1 to 2 volumes of hepes Tyrode's buffer (pH 7.4), final volume of 50 ml, and resuspended in hepes Tyrode's buffer with 1 mg/ml dextrose plus 1 mg/ml bovine serum albumin at 2×10^6/μl to 3×10^6/μl (a 10× normal concentration).
Platelet aggregations were performed on a dual-channel Chronolog lumi aggregometer (Chronolog Corp., Havertown, Pa.) by known methods (Soslau, G. et al. 1988. Biochem. Biophys. Res. Commun. 15:909-916). Aggregations were conducted with 480 μl washed platelets or a 50 μl sample of the concentrated platelets added to 430 μl hepes Tyrode's buffer with a final platelet count of 2×0^5/μl to 3×10^5/μl. Agonists and antagonists were added at various concentrations.

GP Ib = test: Platelet aggregation via the GP Ib pathway (α-thrombin with PAR-1 blocked / polymerizing fibrin); format: cell-based, human
Description: This antibody is known to selectively bind to the thrombin binding site.
The presence of three distinct thrombin receptors on human platelets was shown in experiments with combinations of inhibitors and PAR-4 desensitization. Platelets treated with SCH203099 (7.5 μM) plus ATAP-2 (50 μg/ml) have the PAR-1 receptor blocked at two levels, the tethered ligand and the PAR-1 receptor site for the tethered ligand. […] The delay in aggregation can be explained by the time required for the generation of polymerizing fibrin which would participate in platelet aggregation. This alternative α-thrombin pathway would be obscured normally by the rapid acting PAR-1 pathway.
(§1) AEBSF blocks the catalytic site, but not the GP Ib-binding site of thrombin. Platelets were treated under identical conditions with AEBSF plus the thrombin substrate CBS 34.47 (7.5 μM) in order to determine if AEBSF remains active in the presence of the polymerizing fibrin-thrombin complex. After 5 minutes incubation, the platelets were pelleted in a microcentrifuge for 4 minutes at 14,000 rpm and the generation of product was monitored at 405 nm. AEBSF inhibited thrombin activity in excess of 90%.

platelets [1] = test: Platelet aggregation induced by U46619 and ADP; format: cell-based, human
PAR-1 = PAR-1 (Homo sapiens, UniProt P25116); test: Platelet aggregation via the PAR-1 pathway (TRAP-1 / rapid onset α-thrombin response); format: cell-based
Excerpt: Therefore, GP Ib is the likely candidate.

γ-thrombin = test: Sensitivity of γ-thrombin to thrombin inhibitors; format: cell-based
α-thrombin = test: Sensitivity of α-thrombin to thrombin inhibitors; format: cell-based
β-thrombin = test: Sensitivity of β-thrombin to thrombin inhibitors; format: cell-based
thrombin = test: Thrombin activity with thrombin substrate CBS 34.47, product monitored at 405 nm; format: biochemical; conditions: in presence of polymerizing fibrin-thrombin complex and platelets; CBS 34.47 7.5 μM; 5 minutes incubation
Description: as §1

platelets [2] = test: ATP release (platelet release reaction); format: cell-based, human; conditions: versus corresponding control samples
Description: (§2) Further studies were conducted to distinguish between polymerizing fibrin-dependent platelet aggregation versus platelet trapping. True platelet aggregation involves signal transduction, second messenger formation with subsequent mobilization of internal calcium stores and the platelet release reaction. Platelet trapping, in contrast, by polymerizing fibrin would not involve any of these secondary responses. […] The platelet release reaction was monitored by release of dense granule ATP. Here the release reaction was followed simultaneously with aggregation. […] However, conditions that induced platelet adhesion/polymerizing fibrin-trapping were not associated with any ATP release.
The platelet release reaction was monitored simultaneously in some experiments with aggregation per known techniques (Soslau, G. and J. Parker. 1992. Thromb. Res. 66:15-21). The release of dense granule ATP from aggregating platelets was detected as light emission in the Chronolog lumi-aggregometer produced by the reaction of ATP with luciferin catalyzed by luficerase (chrono-lume).

platelets [3] = test: Calcium mobilization in Fura-2 loaded platelets; format: cell-based, human; conditions: 10 μM SCH 203099 for one hour
Description: as §2
The mobilization of internal stores of calcium, [Ca^+2]i, was monitored with a Hitachi F-2000 fluorescence spectrophotometer in the presence of extracellular EGTA to chelate the extracellular Ca^+2 (Soslau, G. et al. 1995. Biochim. Biophys. Acta 1268:73-80). Platelets, as PRP, were pre-loaded with 1 μM Fura-2 AM for 45 to 60 minutes and then washed and resuspended in hepes Tyrode's buffer at a concentration of […]. Samples were incubated at room temperature with or without 10 μM SCH 203099 for one hour prior to analysis. […] Agonists were added through an injection port at various concentrations. Excitation wavelengths were 340 nm and 380 nm and emission was measured at 505 nm. […]

platelets [4] = test: Synergistic platelet aggregation with suboptimal doses of agonists; format: cell-based, human; conditions: PAR1 inactivated
Description: In all cases, the sum of the aggregation induced by the individual agonists at suboptimal concentrations varied between 0 and 15% (agonist concentrations varied between 0.01 and 0.005 U/ml for α-thrombin; 0.1 to 2 nM for γ-thrombin; 0.38 to 0.76 μM for TRAP-1; 175 to 350 μM for TRAP-4). The low dose of α-thrombin employed was below the level required to function at PAR-1 or PAR-4 but adequate to activate GP Ib. TRAP-4 and γ-thrombin appeared to function only at PAR-4.

PAR-4 = biological target: T1, PAR-4 (Homo sapiens, UniProt Q96RI0); test: Platelet aggregation via the PAR-4 pathway (TRAP-4 / γ-thrombin); format: cell-based; conditions: SCH203099 5 to 10 μM
T1 sequence (Q96RI0 18-385): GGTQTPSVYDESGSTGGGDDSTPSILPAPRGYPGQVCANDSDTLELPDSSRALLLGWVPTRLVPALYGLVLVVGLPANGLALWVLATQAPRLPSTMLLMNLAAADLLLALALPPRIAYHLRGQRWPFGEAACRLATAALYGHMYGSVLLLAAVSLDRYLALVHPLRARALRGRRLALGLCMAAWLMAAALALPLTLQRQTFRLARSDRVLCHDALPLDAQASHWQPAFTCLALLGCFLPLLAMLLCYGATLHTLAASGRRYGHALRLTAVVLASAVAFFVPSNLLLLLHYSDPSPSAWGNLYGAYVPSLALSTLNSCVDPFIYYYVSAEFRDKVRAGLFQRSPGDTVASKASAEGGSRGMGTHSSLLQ

PAR-1, sequence (P25116 22-425): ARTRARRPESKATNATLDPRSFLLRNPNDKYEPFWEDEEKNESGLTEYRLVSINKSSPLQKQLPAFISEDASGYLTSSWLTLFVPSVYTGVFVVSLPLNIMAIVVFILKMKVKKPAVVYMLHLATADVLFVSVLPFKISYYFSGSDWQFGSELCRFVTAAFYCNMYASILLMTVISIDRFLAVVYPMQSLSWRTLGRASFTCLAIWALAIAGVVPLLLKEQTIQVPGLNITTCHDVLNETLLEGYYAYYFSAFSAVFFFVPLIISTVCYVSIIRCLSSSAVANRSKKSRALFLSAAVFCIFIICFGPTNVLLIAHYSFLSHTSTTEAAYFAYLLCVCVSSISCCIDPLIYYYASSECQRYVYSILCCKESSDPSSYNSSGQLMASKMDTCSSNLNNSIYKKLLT

In the case of GPRP, the “effect on α-thrombin-induced platelet aggregation” value (human platelets; thrombin plus fibrinogen) is reported as “no significant effect”.

In the case of RGDS, the “aggregation with polymerizing γ407 via the GP Ib pathway in the presence of RGDS” value (GP Ib) is reported as “at a reduced level”, the “effect on aggregation in the presence of polymerizing fibrin” value (GP Ib; platelets added to α-thrombin plus fibrinogen pre-incubated 2 minutes) is reported as “not affected significantly” and the “effect on aggregation induced by ADP” value (platelets [1]) is reported as “completely blocked”. For the same compound, the “effect on aggregation induced by U46619” value (platelets [1]) was “completely blocked”, the “effect on rapid onset α-thrombin-induced PAR-1 pathway aggregation” value (PAR-1; for the first few minutes, aggregation then ensued via the GP Ib pathway) was “inhibited” and the “effect on aggregation via the PAR-1 pathway when γ407 replaced normal fibrinogen” value (PAR-1; until γ407 began to polymerize) was “initially blocked”. For the same compound, the “aggregation in the presence of RGDS without added fibrinogen” value (human platelets; residual adhering/endogenous fibrinogen only) was “none occurred”.

hirudin was tested, and the “sensitivity of γ-thrombin to the inhibitor” value (γ-thrombin) was “totally insensitive”, the “effect on aggregation, inhibitor added 2 minutes after fibrinogen was pre-incubated with thrombin, platelets added 30 seconds later” value (GP Ib; polymerizing fibrin present) was “prevent aggregation completely” and the “inhibition of α-thrombin” value (α-thrombin) was “completely inhibited”. For the same compound, the “inhibition of β-thrombin” value (β-thrombin) was “completely inhibited” and the “effect on aggregation, inhibitor added to platelets followed by thrombin plus fibrinogen” value (human platelets; hirudin 1 to 2 U/ml) was “completely inhibited”.

`NCCc1ccc(S(=O)(=O)F)cc1` [AEBSF] was tested, and the “inhibition of thrombin activity” value (thrombin) was greater than 90%, the “effect on aggregation, added after formation of the thrombin-fibrin complex but prior to the addition of platelets” value (GP Ib) was “did not inhibit” and the “effect on aggregation, added to thrombin prior to the addition of fibrinogen and platelets” value (human platelets) was “completely inhibited”.

`CNc1nc(NC2CC2)nc2ccc3c(ccn3Cc3ccc(C(C)C)cc3)c12` [SCH203099] was tested, and the “ATP release of drug-treated platelets aggregating under conditions dependent on polymerizing fibrin” value (platelets [2]) was “equal amounts of ATP release”, the “mobilization of internal calcium in response to TRAP-1 in treated platelets” value (platelets [3]) was “only control platelets responded” and the “mobilization of internal calcium in response to α-thrombin in treated platelets” value (platelets [3]; compared to controls) was “delayed”. For the same compound, the “inhibition of TRAP-1-induced aggregation” value (PAR-1; SCH203099 5 to 10 μM) was “completely inhibited”, the “response of treated platelets to low dose α-thrombin plus TRAP-4” value (platelets [4]) was “significant response” and the “inhibition of platelet activation induced by TRAP-4” value (PAR-4; 1 mM TRAP-4) was “did not inhibit”. The “inhibition of platelet activation induced by γ-thrombin” value (PAR-4; 10 to 30 nM γ-thrombin) was “did not inhibit” and the “aggregation profile of preincubated/treated platelets stimulated with α-thrombin” value (human platelets; relative to controls, ultimately reached a similar level of aggregation) was “delayed aggregation profile”.
